Here are results for two compounds from US20240217946A1, “ANTIDEPRESSANT AND ANXIOLYTIC SUBSTITUTED CINNAMAMIDE COMPOUND” (TASLY PHARMACEUTICAL GROUP CO., LTD., priority 2021, published 2024).

In test [1] the test system is DA reuptake in rat brain synaptosomes. The test can be described thus: 3H-DA reuptake by rat brain synaptosomes. Conditions: 3H-DA 10 nM, rat brain synaptosomes; read-out: DA inhibition rate % IC50. The test is classed as biochemical. The source says: At present, it is believed that absolute or relative deficiencies of the central monoamine neurotransmitters 5-hydroxytryptamine (5-HT), norepinephrine (NA) and dopamine (DA) are closely related to depression and anxiety. This experiment was designed to evaluate, by the method of in vitro monoamine reuptake, the inhibitory effect of two samples of tested compound I-5 and compound M2 on reuptake of 5-HT, NA and DA in rat brain synaptosomes. The preparation of in vitro SD rat brain synaptosomes and isotopic tracer method were employed to investigate IC50 of inhibition of monoamine reuptake of DA, 5-HT and NA in two tested samples, in order to explore the possible mechanism of antidepressant and anxiolytic effects of compound I-5 and compound M2.
Synaptosomes were separated using methods in literature to prepare brain synaptosomes. SD rats were rapidly decapitated with a small animal decapitator. After decapitation, brains were taken out quickly and precooled in an ice-water mixture, and the pia mater and vascular tissue were removed. Brain tissue was taken out. 10 times volume (ml/g) of 10 mM Tris HCl buffer (containing 0.32 M sucrose, pH 7.4) was added, an ultrasonic cell pulverizer was used for homogenization (maintaining at a low temperature), and the brain tissue was homogenized and centrifuged for 10 min (4° C., 1,000 g). After balanced centrifugation (1500 g, 10 min) at 4° C., precipitate was discarded, then supernatant was taken, and centrifugation (20000 g) was performed again for 30 min. The supernatant was discarded and the precipitate, i.e. crude extract of synaptic corpuscles, was retained. […] The precipitate was suspended in a small amount of Kreb's buffer (NaCl 118 mM, KCl 4.7 mM, CaCl2) 2.5 mM, MgSO4 1.2 mM, KH2PO4 1.2 mM, NaHCO325 mM and Glucose 11.1 mM, pH 7.2-7.4), BCA method was used for protein quantification, and the operation steps were as described in the description. […]
(§1) The percentage inhibition of isotope ligand binding by each compound was calculated according to the following equation: […]

Test [2] relates to 5-HT reuptake in rat brain synaptosomes. The test can be described thus: 3H-5-HT reuptake by rat brain synaptosomes. It is filed as biochemical. Conditions: 3H-5HT 10 nM, read-out: 5-HT inhibition rate % IC50.
From the text: (§2) At present, it is believed that absolute or relative deficiencies of the central monoamine neurotransmitters 5-hydroxytryptamine (5-HT), norepinephrine (NA) and dopamine (DA) are closely related to depression and anxiety.
(§3) Synaptosomes were separated using methods in literature to prepare brain synaptosomes. SD rats were rapidly decapitated with a small animal decapitator. After decapitation, brains were taken out quickly and precooled in an ice-water mixture, and the pia mater and vascular tissue were removed. Brain tissue was taken out. 10 times volume (ml/g) of 10 mM Tris HCl buffer (containing 0.32 M sucrose, pH 7.4) was added, an ultrasonic cell pulverizer was used for homogenization (maintaining at a low temperature), and the brain tissue was homogenized and centrifuged for 10 min (4° C., 1,000 g). After balanced centrifugation (1500 g, 10 min) at 4° C., precipitate was discarded, then supernatant was taken, and centrifugation (20000 g) was performed again for 30 min. The supernatant was discarded and the precipitate, i.e. crude extract of synaptic corpuscles, was retained. […]
as §1

Test [3] deals with NA reuptake in rat brain synaptosomes. The test can be described thus: 3H-NA reuptake by rat brain synaptosomes. The test is classed as biochemical. Conditions: 3H-NA 10 nM, rat brain synaptosomes; read-out: NA inhibition rate % IC50.
From the text: as §2
as §3, with “retained. The precipitate was further suspended in 0.32 M cold sucrose solution and then carefully laid on 1.2 M and 0.8 M (10 ml each) cold sucrose gradient solutions which had been laid sequentially on the bottom of the tube, followed by balanced centrifugation (38000 g) at 4 °C for 60 min. A suspension band at the 0.8-1.2 M sucrose interface was carefully collected with a puncture needle, which was placed in 10 ml of 0.32 M cold sucrose solution and mixed well, and equilibrium centrifuged (20000 g) at 4 °C for 30 min. The precipitate was refined brain synaptosomes.” for “retained.”
as §1

Test [4] concerns SD rats. Put plainly: Vogel drinking conflict experiment in rats, single administration. The test is classed as in vivo. Particulars: for Number of times of drinking water: 10 mg/kg i.g., 30 min after single dose, punishment stage 3 min, n = 8; for anxiolytic activity in drinking conflict experiment vs solvent control group: single intragastric administration of 20 mg/kg. As to the method:
75 male SD rats, with the body weight of 180-220 g, were fed adaptively for 1 week, water deprived for 24 h for training period test. The animals screened to be qualified were randomly divided into 7 groups (a solvent control group, estazolam group, compound M2 group, compound II-3 group, compound II-4 group, compound II-5 group and compound II-10 group) according to their body weight, with 8 rats in each group. […] results of 3.1: the positive drug estazolam was administered intragastrically at 1.24 mg/kg; and the solvent control group was gavaged with an equal volume of solvent. The grouped animals were continued to be water deprived for 24 h and were given a single dose, and tested in a punishment experiment 30 min after the single dose.
The experiment was carried out in two stages. The first stage is a training stage, in which 24 h after water deprivation, animals were placed in an operation box separately, and were allowed to fully explore until they found the bottle mouth and started to lick water (with an intensity of electric shock being 0 mA), a counter automatically recorded the number of licks within 3 min, and the animals that licked water less than 300 times were eliminated.
Observation index: the number of water licks of rats in the punishment stage.
Data was expressed as mean±standard (mean±SD) difference, and statistics of data differences were made by one-way analysis of variance (ANOVA) or nonparametric test, and differences between groups were determined by P<0.05.

The structures appear in SMILES notation.

As for `CC(C)CNC(=O)/C=C/c1cc2c(c(C(F)(F)F)c1)OCO2` [Compound I-5], the IC50 (usually the concentration that gives 50% inhibition) in test [1] came out at 26 ± 1.33 nM; in test [2], 18.5 ± 2.47 nM; in test [3], 17.2 ± 1.59 nM. Further, the “Number of times of drinking water” value in test [4] is given as 478.02 ± 106.32. In addition, the “anxiolytic activity in drinking conflict experiment vs solvent control group” value in test [4] is on record as “significant anxiolytic activity”.
For the compound `NC(=O)/C=C/c1cc2c(c(C(F)(F)F)c1)OCO2` [Compound M2], the IC50 in test [1] was found to be 37.3 ± 1.97 nM; in test [2] it was 98.9 ± 2.42 nM; in test [3], 23.5 ± 3.56 nM. The “Number of times of drinking water” value in test [4] is 527.26 ± 143.66. In test [4], the “anxiolytic activity in drinking conflict experiment vs solvent control group” value is recorded as “significant anxiolytic activity”.
